A word on the EC50: it is the concentration giving half of the maximal effect.

The structures appear in SMILES notation.

The test system of the first assay is LNCaP cell lines. The experiment in a line: WST-1 Cell Proliferation and Viability Assay. Format: cell-based. To be noted: Homo sapiens; LNCaP cells, compound incubation 18-72 hours. The method, boiled down: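 LNCaP cells (5000/well, phenol-red-free RPMI-1640 with 10% FCS) were plated overnight, then exposed to compounds in 0.1% DMSO final for 18-72 hours at 37 °C. Viability was read by WST-1 conversion to formazan after 3 h further incubation, measured at A490-A650.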
In general terms: Formazan colour is commonly taken as a measure of viable cells.
As for `O=C(Nc1cc(Cl)ccc1OCCc1ccc(OC(F)(F)F)cc1)c1cc(Cl)ccc1O` [Compound 161], the EC50 was found to be 1 µM.

Turning to `O=C(Nc1cc(C(F)(F)F)ccc1OCCc1cccc(Cl)c1)c1cc(Cl)ccc1O` [Compound 248], the EC50 came to 0.5 µM.

For `O=C(Nc1cc(Cl)ccc1OCCc1ccccc1C(F)(F)F)c1cnc2cc(C(F)(F)F)ccc2c1O` [Compound 167], it took 6 µM to reach a half-maximal effect (EC50).

As to `COc1ccc(NC(=O)c2cc(Cl)ccc2O)c(OC)c1` [Compound 256], the concentration for a half-maximal effect (EC50) was determined as 26 µM.

On to `O=C(Nc1cc(C(F)(F)F)ccc1OCc1cccc(C(F)(F)F)c1)c1cc(Cl)ccc1O` [Compound 327], for which the EC50 was found to be 2.1 µM.

In turn, `O=C(Nc1cc(Cl)ccc1OCc1ccc(C(F)(F)F)cc1)c1cc(Cl)ccc1O` [Compound 328] had an EC50 of 1.6 µM.

For the compound `O=C(Nc1cc(C(F)(F)F)ccc1NCc1cccc2ccccc12)c1cc(Cl)ccc1O` [Compound 277], the response was half-maximal at 3 µM (EC50).

For the compound `O=C(Nc1cc(Cl)ccc1OCCc1cccc(OC(F)(F)F)c1)c1cc(Cl)ccc1O` [Compound 284], it took 2 µM to reach a half-maximal effect (EC50).

Regarding `O=C(Nc1ccc(NCCc2cccc(C(F)(F)F)c2)c(C(F)(F)F)c1)c1cc(Cl)ccc1O` [Compound 363], the concentration giving a half-maximal response (EC50) came out at 4 µM.

Regarding `O=C(NCCc1cccc(OCc2ccccc2)c1)c1cc(Cl)ccc1O` [Compound 90], a half-maximal response (EC50) required 18 µM.

`O=C(Nc1cc(C(F)(F)F)ccc1OCCc1ccc(Cl)c(Cl)c1)c1cc(Cl)ccc1O` [Compound 249] yielded a half-maximal effective concentration (EC50) of 0.9 µM.

In turn, `Cc1cccc(-c2cccc(CNC(=O)c3cc(Cl)ccc3O)c2)c1` [Compound 145] registered a concentration giving a half-maximal response (EC50) of 17 µM.

`CS(=O)(=O)c1ccc(CCOc2ccc(Cl)cc2NC(=O)c2cc(Cl)ccc2O)cc1` [Compound 286] had an EC50 of 10 µM.

On to `COc1ccccc1CCNc1ccc(C(F)(F)F)cc1NC(=O)c1cc(Cl)ccc1O` [Compound 274], for which the response was half-maximal at 4 µM (EC50).

`COc1ccccc1CCOc1cccc(NC(=O)c2cc(-c3cccc4ccccc34)ccc2O)c1` [Compound 338] registered an EC50 of 7 µM.

Compound `COc1ccc(OCCc2ccccc2)c(NC(=O)c2cc(Cl)ccc2O)c1` [Compound 147] came in with a concentration for a half-maximal effect (EC50) of 6 µM.

With `O=C(Nc1cccc(OCCc2ccccc2C(F)(F)F)c1)c1cc(Cl)ccc1O` [Compound 138], the EC50 came out at 6 µM.

`Cc1cc(C)cc(COc2cccc(NC(=O)c3cc(Cl)ccc3O)c2)c1` [Compound 105] gave an EC50 of 8 µM.

Compound `O=C(NCCc1cccc(OCCc2ccccc2)c1)c1cc(Cl)ccc1O` [Compound 143] returned an EC50 of 14 µM.

`COc1cccc(-c2ccc(O)c(C(=O)Nc3cccc(OCCc4ccccc4OC)c3)c2)c1` [Compound 235] showed an EC50 of 6 µM.

The compound `O=C(Nc1ccc(Cl)cc1)c1cc(Cl)ccc1O` [Compound 93] returned an EC50 of 4 µM.

`COC(=O)C1CCCN(c2ccc(C(F)(F)F)cc2NC(=O)c2cc(Cl)ccc2O)C1` (stereo not shown) [Compound 315] displayed a half-maximal effective concentration (EC50) of 1.2 µM.

As to `COC(=O)CCc1ccc(OCCc2ccccc2)c(NC(=O)c2cc(Cl)ccc2O)c1` [Compound 326], a half-maximal response (EC50) required 6.2 µM.

Compound `O=C(Nc1cc(OC2CCCCC2c2ccccc2)ccc1Cl)c1cc(Cl)ccc1O` (stereo not shown) [Compound 281] yielded an EC50 of 3 µM.

Turning to `O=C(Nc1ccc(OC2CCCC[C@H]2c2ccccc2)cc1)c1cc(Cl)ccc1O` (stereo partly shown) [Compound 97], the EC50 stood at 3 µM.

In turn, `COc1ccccc1CCOc1cccc(NC(=O)c2cc(-c3ccccc3Oc3ccccc3)ccc2O)c1` [Compound 344] displayed an EC50 of 16 µM.

`CC(C)Cc1ccc(CNc2cccc(NC(=O)c3cc(Cl)ccc3O)c2)cc1` [Compound 13] showed an EC50 of 18 µM.

In turn, `Cc1ccc(OCCc2ccccc2)c(NC(=O)c2cc(Cl)ccc2O)c1` [Compound 149] displayed a half-maximal effective concentration (EC50) of 4 µM.

For `Cc1cc(C)c(OCCc2ccccc2)c(NC(=O)c2cc(Cl)ccc2O)c1` [Compound 101], a half-maximal response (EC50) required 4 µM.

`CC(C)COc1ccc(Cl)cc1NC(=O)c1cc(Cl)ccc1O` [Compound 246]: the response was half-maximal at 2 µM (EC50).

`CN(CCc1ccccn1)c1ccc(NC(=O)c2cc(Cl)ccc2O)cc1C(F)(F)F` [Compound 364] showed a concentration giving a half-maximal response (EC50) of 7 µM.

As to `O=C(Nc1ccccc1)c1cc(Cl)ccc1O` [Compound 168], a half-maximal response (EC50) required 17 µM.

For `O=C(Nc1cc(Cl)ccc1OCCc1cccc(C(F)(F)F)c1)c1cc(Cl)ccc1O` [Compound 83], the response was half-maximal at 0.8 µM (EC50).

`O=C(NCc1cccc(-c2cccc(C(F)(F)F)c2)c1)c1cc(Cl)ccc1O` [Compound 304] gave an EC50 of 18 µM.

The compound `CC(C)(C)c1cc(C(=O)NCc2cccc(-c3ccccc3)c2)c(O)c(C(C)(C)C)c1` [Compound 219] registered a 50% effective concentration (EC50) of 32 µM.

Regarding `COc1ccccc1CCOc1cccc(NC(=O)c2ccccc2O)c1` [Compound 198], the 50% effective concentration (EC50) was 21 µM.

Take `O=C(NCc1ccc(F)c(C(F)(F)F)c1)c1cc(Cl)ccc1O` [Compound 319]: a half-maximal response (EC50) required 17.7 µM.

The compound `COc1ccccc1CCOc1cccc(NC(=O)c2ccc(C)cc2O)c1` [Compound 208] came in with an EC50 of 21 µM.

Compound `COc1ccccc1CCOc1cccc(NC(=O)c2ccc(F)cc2O)c1` [Compound 180] displayed a 50% effective concentration (EC50) of 12 µM.

In turn, `COc1ccc(-c2ccc(O)c(C(=O)Nc3cccc(OCCc4ccccc4OC)c3)c2)cc1` [Compound 342] displayed a 50% effective concentration (EC50) of 10 µM.

On to `O=C(Nc1cc(Cl)ccc1OCc1ccccc1)c1cc(Cl)ccc1O` [Compound 289], for which the midpoint of the response, the EC50, lay at 3.3 µM.

`Cc1cc(Cl)c(OCCc2ccccc2C(F)(F)F)c(NC(=O)c2cc(Cl)ccc2O)c1C` [Compound 240] returned an EC50 of 10 µM.

The compound `Cc1cccc(NC(=O)c2cc(Cl)ccc2O)c1` [Compound 113] yielded an EC50 of 8 µM.

With `Cc1cc(C)c(CCOc2ccc(Cl)cc2NC(=O)c2cc(Cl)ccc2O)c(C)c1` [Compound 81], the concentration giving a half-maximal response (EC50) turned out to be 1 µM.

`Cc1ccccc1COc1cccc(NC(=O)c2cc(Cl)ccc2O)c1` [Compound 84] had a half-maximal effective concentration (EC50) of 14 µM.

Consider `O=C(Nc1ccc(OCCc2ccccc2)cc1)c1cc(Cl)ccc1O` [Compound 63], for which the concentration giving a half-maximal response (EC50) was 20 µM.

As to `Cc1ccc(NC(=O)c2cc(Cl)ccc2O)cc1` [Compound 114], a half-maximal response (EC50) required 10 µM.

With `CC(C)c1ccc(COc2cccc(NC(=O)c3cc(Cl)ccc3O)c2)cc1` [Compound 85], the concentration giving a half-maximal response (EC50) was determined as 6 µM.

In turn, `O=C(Nc1cc(Cl)ccc1OCc1cccc(C(F)(F)F)c1)c1cc(Cl)ccc1O` [Compound 329] came in with an EC50 of 2.2 µM.

Compound `O=C(Nc1cc(Cl)cc(Cl)c1OCCc1cccc(C(F)(F)F)c1)c1cc(Cl)ccc1O` [Compound 242] had a half-maximal effective concentration (EC50) of 2 µM.

`COc1ccccc1CCOc1cccc(NC(=O)c2cc(-c3ccc(Cl)cc3)ccc2O)c1` [Compound 351] registered an EC50 of 11 µM.

The compound `CCN(CC)c1ccc(NC(=O)c2cc(Cl)ccc2O)c(OCCc2cccc(C(F)(F)F)c2)c1` [Compound 360] came in with a 50% effective concentration (EC50) of 2.4 µM.

For the compound `CC(=O)Nc1cccc(C(=O)Nc2cccc(OCCc3ccccc3)c2)c1O` [Compound 2], the midpoint of the response, the EC50, lay at 23 µM.

Regarding `COc1ccccc1CCOc1cccc(NC(=O)c2cc(Br)ccc2O)c1` [Compound 194], the half-maximal effective concentration (EC50) was 9 µM.

The compound `COc1ccccc1CCOc1cccc(NC(=O)c2cc(-c3cc4ccccc4o3)ccc2O)c1` [Compound 339] returned an EC50 of 8 µM.

`O=C(Nc1cccc(OCCc2ccccc2)c1)c1cc(-c2ccc(F)cc2F)ccc1O` [Compound 226] registered a concentration giving a half-maximal response (EC50) of 7 µM.

For the compound `O=C(Nc1cc(C(F)(F)F)ccc1NCC(c1ccccc1)c1ccccc1)c1cc(Cl)ccc1O` [Compound 275], the EC50 was found to be 3 µM.

Compound `CCC(COc1ccc(C)c(NC(=O)c2cc(Cl)ccc2O)c1)c1ccccc1` (stereo not shown) [Compound 128] came in with an EC50 of 2 µM.

`O=C(Nc1cccc(CNc2ccc(Cl)cc2)c1)c1cc(Cl)ccc1O` [Compound 74] yielded a concentration for a half-maximal effect (EC50) of 9 µM.

Compound `COc1ccccc1CCOc1cccc(NC(=O)c2cc(C)ccc2O)c1` [Compound 209] had an EC50 of 17 µM.

`N#Cc1ccc(OCCc2ccccc2)c(NC(=O)c2cc(Cl)ccc2O)c1` [Compound 152] yielded a concentration giving a half-maximal response (EC50) of 7 µM.

Compound `O=CNc1cccc(C(=O)Nc2cccc(OCCc3ccccc3)c2)c1O` [Compound 5] came in with an EC50 of 5 µM.

For the compound `COc1ccccc1CCOc1cccc(NC(=O)c2cc(-c3ccc4ccccc4c3)ccc2O)c1` [Compound 347], the half-maximal effective concentration (EC50) turned out to be 6 µM.

As to `O=C(NCCc1ccc(Oc2ccccc2)cc1)c1cc(Cl)ccc1O` [Compound 54], the midpoint of the response, the EC50, lay at 13 µM.

Regarding `O=C(Nc1cc(Cl)ccc1OCCc1ccc(C(F)(F)F)cc1)c1cc(Cl)ccc1O` [Compound 99], a half-maximal effect (EC50) was put at 1 µM.

`COc1ccccc1CCOc1cccc(NC(=O)c2cc(-c3ccc(C)cc3)ccc2O)c1` [Compound 340] registered a 50% effective concentration (EC50) of 16 µM.

`COc1ccc(O)c(C(=O)Nc2cccc(OCCc3ccccc3)c2)c1` [Compound 187] gave an EC50 of 30 µM.

Compound `O=C(Nc1cc(C(F)(F)F)ccc1OCCC(F)(F)F)c1cc(Cl)ccc1O` [Compound 271] yielded an EC50 of 0.9 µM.

Still in this assay, the particulars now being: Homo sapiens; LNCaP cells; flagged "Estimated": based on actual data at different concentrations.
For `Cc1ccccc1-c1cccc(CNC(=O)c2cc(Cl)ccc2O)c1` [Compound 144], the concentration giving a half-maximal response (EC50) is 30 µM.

As for `O=C(Nc1cc(C(F)(F)F)ccc1OCC(F)(F)F)c1cc(Cl)ccc1O` [Compound 278], the 50% effective concentration (EC50) was 2 µM.

`O=C(NCc1cccc(-c2ccccc2)c1)c1cc(-c2ccc(F)cc2F)ccc1O` [Compound 220]: the EC50 is 20 µM.

With `O=C(NCc1cccc(-c2ccccc2)c1)c1cccc(-c2ccccc2)c1O` [Compound 218], the concentration giving a half-maximal response (EC50) is 32 µM.

With `O=C(NCCc1ccccc1Oc1ccccc1)c1cc(Cl)ccc1O` [Compound 118], the EC50 is 30 µM.

Regarding `COc1ccccc1CCOc1cccc(N(C)C(=O)c2cc(Cl)ccc2OC)c1` [Compound 216], the 50% effective concentration (EC50) is 32 µM.

On to `COc1ccccc1CCOc1cccc(NC(=O)c2cccc(F)c2O)c1` [Compound 353], for which the concentration for a half-maximal effect (EC50) was 25 µM.

Turning to `CC(=O)Nc1cc(F)c(F)cc1C(=O)Nc1cccc(OCCc2ccccc2)c1` [Compound 7], the EC50 was 30 µM.

The values above are taken from patent US7547804B2, “Compounds, compositions, and methods employing same” (Myriad Genetics, Inc., priority 2002, dated 2009).
